Test results reported in ChEMBL document CHEMBL1201862, “PubChem BioAssay data set” (2004).
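All cell lines were grown in 96-well plates and treated with compound for 48 hours. GI50 = concentration required for 50% inhibition of growth.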 Active and inactive are the calls of the source. Rule as the data show it: active = GI50 up to about 1.1 µM and inactive = higher.

What was measured:
Test in all cases: NCI-60 cell line screen, 48 h
786-0 = tested on: 786-0
A498 = tested on: A498
CAKI-1 = tested on: CAKI-1
CCRF-CEM = tested on: CCRF-CEM
EKVX = tested on: EKVX
HL-60 = tested on: HL-60
HOP-62 = tested on: HOP-62
HT-29 = tested on: HT-29
IGROV-1 = tested on: IGROV-1
K562 = tested on: K562
M14 = tested on: M14
MCF7 = tested on: MCF7
MDA-N = tested on: MDA-N
Malme-3M = tested on: Malme-3M
NCI-H460 = tested on: NCI-H460
SF-539 = tested on: SF-539
SK-OV-3 = tested on: SK-OV-3
SNB-19 = tested on: SNB-19
TK-10 = tested on: TK-10
UACC-62 = tested on: UACC-62

Row | Structure (SMILES) | GI50 (786-0) | GI50 (A498) | GI50 (CAKI-1) | GI50 (CCRF-CEM) | GI50 (EKVX) | GI50 (HL-60) | GI50 (HOP-62) | GI50 (HT-29) | GI50 (IGROV-1) | GI50 (K562) | GI50 (M14) | GI50 (MCF7) | GI50 (MDA-N) | GI50 (Malme-3M) | GI50 (NCI-H460) | GI50 (SF-539) | GI50 (SK-OV-3) | GI50 (SNB-19) | GI50 (TK-10) | GI50 (UACC-62)
1 | CCN(CC)c1ccc(/C=C2/C[N+](C)(C)C/C(=C/c3ccc(N(CC)CC)cc3)C2=O)cc1 | 3.12 µM (inactive) | 12.4 µM (inactive) | > 48 µM (inactive) | 1.03 µM (active) | 5.96 µM (inactive) | 0.365 µM (active) | 5.55 µM (inactive) | 1.58 µM (inactive) | 2.19 µM (inactive) | 1.01 µM (active) | 2.4 µM (inactive) | 1.96 µM (inactive) | 1.66 µM (inactive) | 1.95 µM (inactive) | 2.92 µM (inactive) | 2.32 µM (inactive) | 9.29 µM (inactive) | 3.19 µM (inactive) | 9.84 µM (inactive) | 2.01 µM (inactive)
2 | CCCCCCc1cc2cc(C(=O)Nc3nc(C45CC6CC(CC(C6)C4)C5)cs3)c(=O)oc2cc1O | 12.1 µM (inactive) | 13.6 µM (inactive) | 8.81 µM (inactive) | 6.78 µM (inactive) | 17.9 µM (inactive) | 5.18 µM (inactive) | 18.1 µM (inactive) | 13.3 µM (inactive) | 10.4 µM (inactive) | 2.31 µM (inactive) | – | 13.9 µM (inactive) | 11.4 µM (inactive) | 19.7 µM (inactive) | 5.16 µM (inactive) | 10.8 µM (inactive) | 20.3 µM (inactive) | 12.3 µM (inactive) | 11.3 µM (inactive) | 4.65 µM (inactive)
3 | C/C=C(\C)C(=O)OC1C(C)=C2C(C1OC(=O)CCCC)C(C)(OC(C)=O)CC(OC(=O)CCCC)C1(O)C2OC(=O)C1(C)O (stereo not drawn) | 0.982 µM (active) | 6.47 µM (inactive) | 5.13 µM (inactive) | 1.74 µM (inactive) | 8.22 µM (inactive) | 0.0324 µM (active) | 0.431 µM (active) | 0.736 µM (active) | 6.85 µM (inactive) | 2.2 µM (inactive) | 0.452 µM (active) | 0.394 µM (active) | 0.437 µM (active) | – | 0.792 µM (active) | 0.944 µM (active) | 4.11 µM (inactive) | 0.41 µM (active) | 13 µM (inactive) | 1.57 µM (inactive)
4 | C/C(CC/C(C)=N/O)=N\O | > 100 µM (inactive) | > 100 µM (inactive) | > 100 µM (inactive) | – | > 100 µM (inactive) | > 100 µM (inactive) | > 100 µM (inactive) | > 100 µM (inactive) | > 100 µM (inactive) | > 100 µM (inactive) | > 100 µM (inactive) | > 100 µM (inactive) | > 100 µM (inactive) | > 100 µM (inactive) | > 100 µM (inactive) | > 100 µM (inactive) | > 100 µM (inactive) | > 100 µM (inactive) | > 100 µM (inactive) | > 100 µM (inactive)
5 | CN(C)Cc1cc(Cl)c(O)c(CN(C)C)c1 | > 100 µM (inactive) | > 100 µM (inactive) | > 100 µM (inactive) | > 100 µM (inactive) | > 100 µM (inactive) | > 100 µM (inactive) | > 100 µM (inactive) | > 100 µM (inactive) | > 100 µM (inactive) | > 100 µM (inactive) | > 100 µM (inactive) | > 100 µM (inactive) | > 100 µM (inactive) | > 100 µM (inactive) | > 100 µM (inactive) | – | > 100 µM (inactive) | > 100 µM (inactive) | > 100 µM (inactive) | > 100 µM (inactive)
6 | COc1ccc(C(OCC2OC(n3cc(C)c(=O)[nH]c3=O)CC2n2cc(Cn3cc(F)c(=O)[nH]c3=O)nn2)(c2ccccc2)c2ccccc2)cc1 (stereo not drawn) | 3.67 µM (inactive) | 10.1 µM (inactive) | 8.38 µM (inactive) | 2.56 µM (inactive) | 5.65 µM (inactive) | 2.63 µM (inactive) | 4.1 µM (inactive) | 6.28 µM (inactive) | 7.96 µM (inactive) | – | 4.58 µM (inactive) | 3.54 µM (inactive) | 1.54 µM (inactive) | 9.04 µM (inactive) | – | 4.23 µM (inactive) | 5.3 µM (inactive) | 6.07 µM (inactive) | 13.6 µM (inactive) | 11 µM (inactive)
7 | O=C1/C(=C/c2ccc(Oc3ccccc3)cc2)N=C(c2ccccc2)N1c1ccc(S(=O)(=O)Nc2nccs2)cc1 | 31.4 µM (inactive) | 18.1 µM (inactive) | 21.7 µM (inactive) | 26.2 µM (inactive) | 23.2 µM (inactive) | 6.73 µM (inactive) | 14.9 µM (inactive) | 9.68 µM (inactive) | – | 7.48 µM (inactive) | 15.3 µM (inactive) | 14.3 µM (inactive) | 3.22 µM (inactive) | 19.1 µM (inactive) | 25.5 µM (inactive) | 31.5 µM (inactive) | 27.8 µM (inactive) | 35.3 µM (inactive) | 26.8 µM (inactive) | 19.5 µM (inactive)
8 | CN(C)CCCNc1c2ccccc2[n+]([O-])c2ccccc12 | 40.6 µM (inactive) | 54.8 µM (inactive) | 49.4 µM (inactive) | 62.1 µM (inactive) | 40.6 µM (inactive) | 51.8 µM (inactive) | 43.5 µM (inactive) | 7.06 µM (inactive) | 37.3 µM (inactive) | 31.4 µM (inactive) | > 100 µM (inactive) | 31.6 µM (inactive) | 68.7 µM (inactive) | 76.7 µM (inactive) | 27.5 µM (inactive) | 45.9 µM (inactive) | 82.6 µM (inactive) | – | 31.9 µM (inactive) | > 100 µM (inactive)
9 | CC1CC(=O)Nc2cc(Cl)ccc2N1C(=O)C1CC1 (stereo not drawn) | > 100 µM (inactive) | > 100 µM (inactive) | > 100 µM (inactive) | > 100 µM (inactive) | > 100 µM (inactive) | > 100 µM (inactive) | > 100 µM (inactive) | > 100 µM (inactive) | > 100 µM (inactive) | > 100 µM (inactive) | > 100 µM (inactive) | > 100 µM (inactive) | > 100 µM (inactive) | > 100 µM (inactive) | > 100 µM (inactive) | > 100 µM (inactive) | > 100 µM (inactive) | > 100 µM (inactive) | > 100 µM (inactive) | –
10 | O=CCOCc1cc2c(cc1Br)OCO2 | 17.3 µM (inactive) | > 100 µM (inactive) | 19.9 µM (inactive) | 9.93 µM (inactive) | > 100 µM (inactive) | 20.9 µM (inactive) | > 100 µM (inactive) | 19 µM (inactive) | 32.8 µM (inactive) | 44.6 µM (inactive) | 20.3 µM (inactive) | 20.3 µM (inactive) | 37.2 µM (inactive) | – | > 100 µM (inactive) | 25.2 µM (inactive) | > 100 µM (inactive) | – | 52.1 µM (inactive) | 43.4 µM (inactive)
11 | O=C(Nc1ccc2[nH]c(C(=O)N3CC(CCl)c4ccc([N+](=O)[O-])cc43)cc2c1)c1cc2ccccc2o1 (stereo not drawn) | > 1100 µM (inactive) | > 1100 µM (inactive) | > 1100 µM (inactive) | > 1100 µM (inactive) | > 1100 µM (inactive) | > 1100 µM (inactive) | > 1100 µM (inactive) | > 1100 µM (inactive) | > 1100 µM (inactive) | – | > 1100 µM (inactive) | > 1100 µM (inactive) | > 1100 µM (inactive) | > 1100 µM (inactive) | 98.4 µM (inactive) | > 1100 µM (inactive) | > 1100 µM (inactive) | > 1100 µM (inactive) | – | > 1100 µM (inactive)
12 | O=c1ccn(CC2(CO)CCC2)c(=O)[nH]1 | > 100 µM (inactive) | > 100 µM (inactive) | > 100 µM (inactive) | > 100 µM (inactive) | > 100 µM (inactive) | > 100 µM (inactive) | > 100 µM (inactive) | > 100 µM (inactive) | > 100 µM (inactive) | > 100 µM (inactive) | – | > 100 µM (inactive) | > 100 µM (inactive) | > 100 µM (inactive) | > 100 µM (inactive) | > 100 µM (inactive) | > 100 µM (inactive) | – | > 100 µM (inactive) | > 100 µM (inactive)
13 | CN(C)c1ccc(C2CC(=O)CC(c3ccc(N(C)C)cc3)C23C(=O)NC(=S)NC3=O)cc1 (stereo not drawn) | 54.6 µM (inactive) | > 100 µM (inactive) | > 100 µM (inactive) | > 100 µM (inactive) | 55.5 µM (inactive) | > 100 µM (inactive) | 18 µM (inactive) | > 100 µM (inactive) | – | > 100 µM (inactive) | > 100 µM (inactive) | 86.1 µM (inactive) | > 100 µM (inactive) | > 100 µM (inactive) | > 100 µM (inactive) | > 100 µM (inactive) | > 100 µM (inactive) | 71.3 µM (inactive) | > 100 µM (inactive) | > 100 µM (inactive)
14 | CN1CCN(C2=C(Cl)C3(OCCS3)C(F)(F)C2(F)F)CC1 (stereo not drawn) | > 100 µM (inactive) | > 100 µM (inactive) | > 100 µM (inactive) | > 100 µM (inactive) | > 100 µM (inactive) | 64.4 µM (inactive) | 46.9 µM (inactive) | 39.4 µM (inactive) | > 100 µM (inactive) | 29.8 µM (inactive) | > 100 µM (inactive) | > 100 µM (inactive) | > 100 µM (inactive) | > 100 µM (inactive) | – | > 100 µM (inactive) | > 100 µM (inactive) | > 100 µM (inactive) | > 100 µM (inactive) | > 100 µM (inactive)
